In ChEMBL document CHEMBL1201862, “PubChem BioAssay data set” (2004):
Active and inactive are the calls of the source. For most assays here, no stated cut-off is given here; in the data, actives have a measured EC50 and inactives only a lower limit.

What was measured:
[1] = molecular target: Luciferin 4-monooxygenase (Photinus pyralis, UniProt P08659); assay: inhibition of purified Photinus pyralis luciferase – biochemical, luminescence, dose response (AID 1891)
[2] = Luminescence Cell-Based Dose Confirmation HTS to Identify Inhibitors of Platelet Dense Granule Release. [Related pubchem assays: 1663 (Primary HTS), 1678 (Summary of Project)]; type: functional
[3] = molecular target: T1, Calpain-2 catalytic subunit (Sus scrofa, UniProt P43367); assay: m-calpain protease blockers, concentration series – biochemical, fluorogenic peptide substrate, dose response (AID 1420); type: functional
T1 sequence (P43367 whole entry): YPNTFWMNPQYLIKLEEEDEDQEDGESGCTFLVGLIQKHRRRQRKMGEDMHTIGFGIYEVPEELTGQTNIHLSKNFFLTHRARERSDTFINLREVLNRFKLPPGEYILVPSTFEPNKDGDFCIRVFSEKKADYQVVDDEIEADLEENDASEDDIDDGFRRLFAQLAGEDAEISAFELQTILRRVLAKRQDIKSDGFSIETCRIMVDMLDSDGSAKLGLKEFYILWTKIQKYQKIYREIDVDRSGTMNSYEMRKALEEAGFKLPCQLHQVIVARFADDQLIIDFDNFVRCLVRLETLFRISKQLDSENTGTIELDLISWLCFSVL

BJ [4] = assay: cells; type: functional, cell-based; settings: Homo sapiens
BJ [5] = assay: BJ-TERT-LT-ST fibroblast viability loss – cell-based, RAS-independent, luminescence, dose response (AID 1935); type: functional; settings: Homo sapiens;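 further: BJ fibroblasts immortalized with TERT plus LT and ST oncogenes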
[6] = DRD fibroblast viability loss – cell-based, non-viral oncogenic, luminescence, dose response (AID 1934); type: functional; settings: Homo sapiens
BJ [7] = assay: BJ-TERT fibroblast viability loss – cell-based, RAS-independent, luminescence, dose response (AID 1933); type: functional; settings: Homo sapiens
Protein RecA = molecular target: T2, Protein RecA (Mycobacterium tuberculosis, UniProt P9WHJ3); assay: Fluorescence Cell-Free Homogeneous Dose Retest to Identify Inhibitors of RecA-Intein Splicing Activity. [Related pubchem assays (depositor defined):AID2097, AID2223, AID489010, AID492950]; type: functional
T2 sequence (P9WHJ3 whole entry): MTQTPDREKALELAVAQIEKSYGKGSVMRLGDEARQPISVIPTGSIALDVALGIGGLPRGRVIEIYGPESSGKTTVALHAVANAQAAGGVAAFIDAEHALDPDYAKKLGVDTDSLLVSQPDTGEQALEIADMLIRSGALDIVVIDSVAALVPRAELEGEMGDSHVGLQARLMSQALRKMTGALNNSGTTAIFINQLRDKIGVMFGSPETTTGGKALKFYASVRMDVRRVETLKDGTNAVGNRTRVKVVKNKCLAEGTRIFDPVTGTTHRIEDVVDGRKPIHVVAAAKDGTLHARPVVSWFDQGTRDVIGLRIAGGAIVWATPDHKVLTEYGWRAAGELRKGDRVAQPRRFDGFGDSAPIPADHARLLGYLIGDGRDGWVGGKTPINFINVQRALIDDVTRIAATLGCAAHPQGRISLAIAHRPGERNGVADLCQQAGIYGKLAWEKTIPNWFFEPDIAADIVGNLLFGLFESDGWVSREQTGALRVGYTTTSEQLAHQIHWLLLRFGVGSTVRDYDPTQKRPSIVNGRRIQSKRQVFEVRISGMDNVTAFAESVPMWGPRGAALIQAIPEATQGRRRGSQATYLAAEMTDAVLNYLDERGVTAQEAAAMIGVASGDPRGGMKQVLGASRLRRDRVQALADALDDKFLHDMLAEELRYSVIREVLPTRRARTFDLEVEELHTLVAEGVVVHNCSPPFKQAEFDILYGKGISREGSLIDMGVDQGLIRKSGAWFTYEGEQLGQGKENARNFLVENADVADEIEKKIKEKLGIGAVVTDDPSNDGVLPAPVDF

[8] = molecular target: T3, Replicative DNA helicase DnaB (Mycobacterium tuberculosis, UniProt P9WMR3); assay: DnaB intein splicing inhibitors, dose response, biochemical, cell-free fluorescence (AID 449749); type: functional
T3 sequence (P9WMR3 whole entry): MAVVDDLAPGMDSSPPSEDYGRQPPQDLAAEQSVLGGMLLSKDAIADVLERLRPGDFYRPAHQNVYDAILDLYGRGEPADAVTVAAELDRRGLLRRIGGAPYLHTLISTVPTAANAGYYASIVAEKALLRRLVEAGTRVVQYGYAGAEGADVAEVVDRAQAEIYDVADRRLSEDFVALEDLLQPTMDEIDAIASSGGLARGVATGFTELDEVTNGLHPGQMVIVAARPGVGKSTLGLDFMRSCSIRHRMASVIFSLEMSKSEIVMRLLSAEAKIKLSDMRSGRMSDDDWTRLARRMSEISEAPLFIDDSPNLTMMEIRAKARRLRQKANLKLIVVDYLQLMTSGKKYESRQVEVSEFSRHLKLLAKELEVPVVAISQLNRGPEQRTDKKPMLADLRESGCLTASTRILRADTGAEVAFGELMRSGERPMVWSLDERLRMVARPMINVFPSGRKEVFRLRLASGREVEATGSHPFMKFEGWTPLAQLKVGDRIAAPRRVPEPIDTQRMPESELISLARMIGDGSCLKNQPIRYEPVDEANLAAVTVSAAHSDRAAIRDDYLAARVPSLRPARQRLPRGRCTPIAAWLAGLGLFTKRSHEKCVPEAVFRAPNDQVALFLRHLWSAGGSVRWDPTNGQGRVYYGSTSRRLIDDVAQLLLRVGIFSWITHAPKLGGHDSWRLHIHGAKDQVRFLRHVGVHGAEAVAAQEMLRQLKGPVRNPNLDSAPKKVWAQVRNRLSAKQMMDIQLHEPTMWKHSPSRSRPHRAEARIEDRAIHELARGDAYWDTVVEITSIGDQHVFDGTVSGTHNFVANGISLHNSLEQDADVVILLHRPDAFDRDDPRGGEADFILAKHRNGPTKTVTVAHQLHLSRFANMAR

[9] = Luminescence Cell-Based Dose Response HTS to Identify Inhibitors of 5'UTR Stem-Loop Driven Prion Protein mRNA Translation in H4 Neuroglioblastoma Cells. [Related pubchem assays: 1827 (Project Summary), 1813 (Primary HTS)]; type: functional
[10] = viability of PTEN-deleted HCT116 cells – cell-based, HCT116 PTEN knockout, dose response (AID 1047); type: functional;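 further: HCT116 colon tumor cells with PTEN knocked out; cells exposed to compound for 60 hours before readout; potency for loss of cell viability measured by luminescence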
[11] = alpha-synuclein stem-loop luciferase translation blockers – H4 neuroglioma cells, luminescence, confirmation (AID 1988); type: functional, cell-based
[12] = viability of HCT116 lacking mutant beta-catenin – cell-based, human colon tumor, dose response (AID 1045); type: functional;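 further: HCT116 colon tumor cells with beta catenin knocked out; cells exposed to compound for 60 hours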
[13] = luciferase reporter signal suppression in cells – H4 neuroglioma cells, luminescence, dose response (AID 1990); type: functional, cell-based

Luciferin 4-monooxygenase, sequence (P08659 whole entry): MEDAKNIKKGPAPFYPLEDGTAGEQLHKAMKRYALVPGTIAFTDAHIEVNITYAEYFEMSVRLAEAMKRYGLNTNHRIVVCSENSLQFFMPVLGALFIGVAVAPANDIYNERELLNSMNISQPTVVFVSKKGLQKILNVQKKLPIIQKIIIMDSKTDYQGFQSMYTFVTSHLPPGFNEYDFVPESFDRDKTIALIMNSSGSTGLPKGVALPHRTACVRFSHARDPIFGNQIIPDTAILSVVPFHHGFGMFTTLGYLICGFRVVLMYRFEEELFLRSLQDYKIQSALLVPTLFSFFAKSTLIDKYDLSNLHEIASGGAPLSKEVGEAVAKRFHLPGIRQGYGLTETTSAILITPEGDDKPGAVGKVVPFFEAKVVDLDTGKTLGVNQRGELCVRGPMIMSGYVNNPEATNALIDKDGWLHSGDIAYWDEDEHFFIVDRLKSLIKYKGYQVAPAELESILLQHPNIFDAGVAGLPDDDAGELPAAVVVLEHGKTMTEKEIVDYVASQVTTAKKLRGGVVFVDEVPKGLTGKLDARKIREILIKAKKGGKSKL

SMILES: COc1ccc(C(=O)Nc2cccc(C)c2)cc1
- EC50 [1]: 16.1 µM (active)
- EC50 [2]: 7.08 µM (active)

SMILES: Cn1c(=O)[nH]c(=O)c2[nH]c(N(Cc3ccccc3)Cc3ccccc3)nc21
- IC50 [3]: > 50 µM (not active)

SMILES: COc1ccc(/C=N/Nc2nn3cnnc3c3ccccc23)cc1
- IC50 [3]: 5.99 µM (not active)

SMILES: Cc1ccc(C)c(C2NC(=O)c3ccccc3N2)c1 (centres undefined)
- EC50 (BJ [4]): 93.9 µM (active)
- EC50 (BJ [5]): 18.2 µM (active)
- EC50 [6]: 19.3 µM (inconclusive)
- EC50 (BJ [7]): 9.8 µM (inconclusive)

SMILES: CC1N(O)C(c2ccc(Cl)cc2Cl)N(O)C1(C)C (centres undefined)
- EC50 [1]: > 112 µM (not active)
- EC50 [2]: > 112 µM (not active)

SMILES: O=[N+]([O-])c1ccc2c(c1)C(N1CCOCC1)/C(=C/COc1ccc(Cl)cc1Cl)O2 (centres undefined)
- IC50 [3]: 5.41 µM (not active)

SMILES: CCCc1nn(C)c2c1C(c1cccnc1)C(C#N)=C(N)O2 (centres undefined)
- EC50 (Protein RecA): 3.83 µM (active)
- AC50 [8]: 6.1 µM (active)

SMILES: CC(=O)Nc1cccc(NC(=O)C(=O)Nc2ccc3c(c2)N(C(=O)C2CC2)CCC3)c1
- EC50 [1]: 31 µM (active)
- EC50 [2]: > 112 µM (not active)

SMILES: COCCCNC(=O)Cn1c(=O)n(CCCCCC(=O)Nc2ccccc2)c(=O)c2sccc21
- EC50 [1]: > 112 µM (not active)
- EC50 [2]: > 112 µM (not active)

SMILES: C/C(CC(=O)N1CCN(C=O)CC1)=N\NC(=O)c1cccc([N+](=O)[O-])c1
- EC50 (Protein RecA): 1.99 µM (active)
- AC50 [8]: 24.7 µM (active)

SMILES: N#Cc1ccsc1NC(=O)CCc1ccccc1
- EC50 (BJ [4]): 34.1 µM (active)
- EC50 (BJ [5]): 18.1 µM (active)
- EC50 [6]: 19.3 µM (active)
- EC50 (BJ [7]): 15.7 µM (active)

SMILES: O=C(NCc1cccc(Cl)c1)c1ccc2c(c1)SC1=NS(=O)(=O)CCN12
- IC50 [3]: 14.8 µM (not active)

SMILES: CCCCOc1ccccc1NC(=O)Cn1c(-c2nonc2N)nc2ccccc21
- EC50 [9]: 8.28 µM (active)
- EC50 (BJ [4]): 7.06 µM (active)
- EC50 (BJ [5]): 3.73 µM (inconclusive)
- EC50 [6]: 4.23 µM (active)
- EC50 [10]: 254 nM (active)
- EC50 [11]: 2.49 µM (active)
- EC50 [12]: 163 nM (active)
- EC50 (BJ [7]): 3.38 µM (active)
- EC50 [13]: 7.21 µM (inconclusive)

SMILES: COc1ccc(NC(=O)CN(c2ccccc2)S(=O)(=O)c2ccccc2)c(OC)c1
- IC50 [3]: 49.3 µM (not active)

SMILES: CC(C)(C)NC(=O)c1cc(C(C)(C)C)c(O)c(C(C)(C)C)c1
- IC50 [3]: 3.38 µM (not active)

SMILES: COc1cc2c(cc1OC)-c1cc(Nc3ccc(C)cc3)nc(=O)n1CC2
- EC50 [1]: > 112 µM (not active)
- EC50 [2]: 3.46 µM (active)

SMILES: COC(=O)c1cc2n(n1)CCN(Cc1ccc(F)cc1)C2=O
- EC50 [1]: > 112 µM (not active)
- EC50 [2]: > 112 µM (not active)
